The record followed here is patent EP0176369A2, “7-(Alpha-(4-oxo-2-azetidinyl(or -azetidinylalkyl)-oxyimino)-alpha-(2-amino-4-thiazolyl)acetamido]-3- substituted-Delta 3-cephem-4-carboxylic acid compounds and salts thereof, their production, and medicaments containing them” (YAMANOUCHI PHARMACEUTICAL CO. LTD., priority 1984, dated 1986).

Common to all, as to experiment: Antibacterial activity (minimum effective inhibitory concentration)
Holding throughout (assay type): cell-based

In assay [1] the test system is Staph. epidermidis IIb 866. The conditions noted are these: Staphylococcus epidermidis, IIB866, read-out: minimum effective inhibitory concentrations. From the text: (§1) Antibacterial activities (minimum effective inhibitory concentrations) of compounds of formula I (taken from the following Examples) are shown in the following Table.
The subject of assay [2] is Sal. enteritidis 1891. The conditions noted are these: Salmonella enterica, read-out: minimum effective inhibitory concentrations.
Source text: as §1

For assay [3], the system named is Serr. marcescens II D 620. The conditions noted are these: Serratia marcescens, IID620, read-out: minimum effective inhibitory concentrations.
Source text: as §1

Assay [4] has as its system Kleb. pneumoniae ATCC 10031. The conditions noted are these: Klebsiella pneumoniae, ATCC10031, read-out: minimum effective inhibitory concentrations.
Source text: as §1

In assay [5] the test system is Ps. aeruginosa NCTC 10490. As to conditions: Pseudomonas aeruginosa, NCTC10490, read-out: minimum effective inhibitory concentrations.
Source text: as §1

Converted amounts (≈) assume the structure as drawn.

Consider `Cn1nnnc1SCC1=C(C(=O)O)N2C(=O)C(NC(=O)C(=NOC3CC(=O)N3)c3csc(N)n3)C2SC1` (stereo not drawn) [Example 1, sodium (Z)-7-[α-(4-oxo-2-azptidinyloxyimino)-4-(2-amino-4-thiazolyl)acet-amido]-3-(1-methyl-5-tetrazolyl)thiomethyl-Δ^3-cephem-4-carboxylate], for which the MIC in assay [1] worked out at 0.2 µg/mL; in assay [2] it was 0.025 µg/mL; in assay [3] it was 0.05 µg/mL; in assay [4], 0.025 µg/mL; in assay [5], 0.78 µg/mL.
Consider `Nc1ccc[n+](CC2=C(C(=O)[O-])N3C(=O)C(NC(=O)C(=NOC4CC(=O)N4)c4csc(N)n4)C3SC2)c1` (stereo not drawn) [Example 4, (Z)-7-[α(-2-amino-4-thiazolyl) -α-(4-oxo-2-azetidinyloxyimino)acetamido]-3-(3-amino-pyridiniomethyl)-^3-cephem-4-carboxylate], for which the MIC in assay [1] turned out to be 0.2 µg/mL (≈ 0.367 µM); in assay [2], 0.1 µg/mL (≈ 0.184 µM); in assay [3] it was 0.1 µg/mL (≈ 0.184 µM); in assay [4] it was 0.1 µg/mL (≈ 0.184 µM); in assay [5], 0.78 µg/mL (≈ 1.43 µM).
As for `Nc1nc(C(=NOC2CC(=O)N2)C(=O)NC2C(=O)N3C(C(=O)O)=C(CSc4nnnn4CCO)CSC23)cs1` (centres unmarked) [Example 2, sodium (Z)-7[-(2-amino-4-thiazolyl)-∝-(4-oxo-2-azetidingloxyiino)acetamido]-3-[1-(2-gtdrixy-ethyl)-5-tetrazolyl]thiomethyl-^3-cephem-4-carboxcylate], the MIC in assay [1] came out at 0.78 µg/mL; in assay [2], 0.1 µg/mL; in assay [3] it was 0.1 µg/mL; in assay [4], 0.05 µg/mL; in assay [5], 0.1 µg/mL.
On to `C[N+]1(CC2=C(C(=O)[O-])N3C(=O)C(NC(=O)C(=NOC4CC(=O)N4)c4csc(N)n4)C3SC2)CCCC1` (centres unmarked) [Example 7, (Z)-7-[ -(2-amino-4-thiazolyl)- -(4-oxo-2-azetidinyloxyimino)-acetamido]-3-(1-methyl-1-pyrrolidiniomethyl)-3-cephem-4-carboxylate], for which the MIC came out at 0.2 µg/mL (≈ 0.373 µM) in assay [1]; 0.05 µg/mL (≈ 0.0934 µM) in assay [2]; 0.1 µg/mL (≈ 0.187 µM) in assay [3]; 0.05 µg/mL (≈ 0.0934 µM) in assay [4]; 0.39 µg/mL (≈ 0.728 µM) in assay [5].
